Data published in EP0029617A1, “Use of tertiary heterocyclic amines as synergists in pesticides; derivatives of cycloamines” (priority 1979, dated 1981).

Tested on: Kornkäfer (sitophilus granarius L)
Experiment: whole plant or invertebrate
Format: in vivo
Settings: for mortality at 1000 µg/mL: Sitophilus granarius, read-out: Wirksamkeit in % Substanz allein; for mortality at 1000 µg/mL / Wirksamkeit in % Substanz allein: amine 1 mg/ml in Aceton mixed 1 : 1 with Aceton, 2 ml per dish, 25 weevils, dead counted after 3 h; for Synergistischer Faktor bei Ripcord: amine 1 mg/ml + Ripcord 0,01 mg/ml; for Wirksamkeit in % Substanz +Ripcord: amine 1 mg/ml mixed 1 : 1 with Ripcord 0,01 mg/ml; for Wirksamkeit in % Substanz +Talcord: amine 1 mg/ml mixed 1 : 1 with Talcord 0,01 mg/ml; for Synergistischer Faktor bei Talcord: amine 1 mg/ml + Talcord 0,01 mg/ml
Procedure: Test von tertiären, heterocyclischen Aminen allein und im Gemisch mit Pyrethroiden an Kornkäfern (sitophilus granarius L)
In Petrischalen mit 15 cm Durchmesser mit talcumbepuderten Seitenwänden, um das Entfliehen der Kornkäfer zu verhindern, wurden jeweils 2 ml der Acetonlösungen einpipettiert und durch vorsichtiges Schwenken der Schalen gleichmäßig auf dem Boden verteilt. Nach dem Abdampfen des Acetons und dem Antrocknen der Beläge wurden in jede Schale 25 Kornkäfer eingezählt. Nach einer Stunde wurde jeweils ein 12,5 cm Rundfilter in die Schalen eingelegt, um den Käfern das Befreien aus der Rückenlage zu ermöglichen, was auf der glatten Glasplatte nicht möglich ist. Die lichtscheuen Käfer verkrochen sich mit Vorliebe unter die Filter und blieben so ständig mit den Wirkstoffbelägen in Kontakt. Alle Versuche liefen mit 3 Wiederholungen. Nach 3 h wurden die toten Käfer ausgezählt.
In der Tabelle 3 ist jeweils der Durchschnitt der Summe der 4 Einzelwerte angegeben. 25 tote Kornkäfer entsprechen dabei einer Wirkung von 100 %. Die Temperaturen betrugen während der Tests im Durchschnitt 19 - 21°C. Der synergistische Faktor berechnet sich analog wie in Beispiel 1 angegeben.
Die zu prüfenden tertiären, heterocyclischen Amine wurden - mit 1 mg Wirkstoff pro ml als Acetonlösungen angesetzt. Sie wurden im Verhältnis 1 : 1 mit Ripcord bzw. Talcord, die mit 0,01 mg Wirkstoff pro ml als Acetonlösung vorlagen, gemischt. Die Einzelkomponenten wurden im Verhältnis 1 : 1 mit Aceton gemischt.
Auch bei diesen Versuchen zeigten die Kontrollversuche stets bei Versuchsende eine Mortalität der Kornkäfer von 0 %.
Die synergistische Wirkung der tertiären, heterocyclischen Amine auf die Pyrethroide ist auch dann noch deutlich, wenn das Amin in wesentlich niederen Aufwandmengen eingesetzt wird, als dies in Beispiel 3 beschrieben wurde. Die Ergebnisse sind in der Tabelle 4 zusammengestellt. Dieser Versuch zeigt auch, daß Amine mit insektiziden Eigenschaften, wenn sie in Konzentrationen unterhalb ihres insektiziden Wirkungsbereiches eingesetzt werden, immer noch gute synergistische Wirkungen im Gemisch mit Pyrethroiden zeigen. Die Versuche wurden wie im Beispiel 3 beschrieben mit Kornkäfern durchgeführt. Es wurden lediglich die Konzentrationen der eingesetzten tertiären, heterocyclischen Amine geändert. Für die Verdünnung Pyrethroid : Amin = 1 : 10 wurde das Amin mit 0,1 mg Wirkstoff/ml Acetonlösung eingesetzt. Für die Verdünnung 1 : 5 mit 0,05 mg Wirkstoff/ml.

Compound | mortality at 1000 µg/mL | Synergistischer Faktor bei Ripcord | Wirksamkeit in % Substanz +Ripcord (3 h) | Wirksamkeit in % Substanz +Talcord (3 h) | Wirksamkeit in % Substanz allein | Synergistischer Faktor bei Talcord | Wirksamkeit von Talcord (Talcord alone, 0,01 mg/ml mixed 1 : 1 with Aceton, 3 h)
CCCCCCCCCC(C)N1CCCC1 (centres unmarked) [N-2-Undecyl-pyrrolidin] | 56% | 1,36 | 98,8% | 64,0% |  |  | 
CCOCCN1CCCC1 [N-1-(1'-Ethoxiethyl-(2))-pyrrolidin] |  | 2,22 | 70,0% | 0% | 0% |  | 
CCCCCN1CCCCC1 [N-1-Pentyl-piperidin] | 0% | 1,94 | 61,2% | 20,0% |  | 2,06 | 
c1ccc(OCCN2CCOCC2)cc1 [N-(2-Phenoxi-ethyl-(1))-morpholin] |  | 2,45 | 77,2% | 62,8% | 0% | 6,47 | 
O=C1CCCCC1CN1CCCCC1 (centres unmarked) [2-N-Piperidino-methyl-cyclo-hexanon] |  | 1,65 | 70,8% | 34,8% | 18,8% | 1,65 | 
c1ccc(COCCN2CCOCC2)cc1 [N-(2-Benzyloxi-ethyl-(1))-morpholin] |  | 1,61 | 50,8% | 32,0% | 0% | 3,30 | 
CC1(C)C(C=C(Cl)Cl)C1C(=O)OCc1cccc(Oc2ccccc2)c1 (centres unmarked) [Talcord, reference compound] |  |  |  |  |  |  | Wirksamkeit von Talcord: 9,7%
CC(C)=CCCC(C)=CCCC(C)=CCN1CCCCC1 [N-Farnesyl-piperidin] | 0% | 2,67 | 84,0% | 41,2% |  | 4,25 | 
CCCCCN1CCOCC1 [N-1-Pentyl-morpholin] | 0% | 2,79 | 88,0% | 37,2% |  | 3,83 | 
N-Hydrinden-morpholin |  | 1,40 | 44,0% | 30,8% | 0% | 3,17 | 
C=CC(C)(CCC=C(C)C)N1CCCCCC1 (centres unmarked) [6-N-Hexamethylenimino-2,6-dimethyl-octadien-(2,7)] |  | 2,41 | 76,0% | 70,8% | 0% | 7,30 | 
c1ccc(OCCN2CCCCCC2)cc1 [N-2-Phenoxi-ethyl-(1)-hexa-methylenimin] |  | 2,70 | 85,2% | 49,4% | 0% | 5,09 | 
OCCN1CCOCC1 [N-Ethanol-morpholin] |  | 2,12 | 66,8% | 38,8% | 0% | 4,0 | 
CCOCCN1CCCCC1 [N-1-Ethoxi-ethyl-(2)-piperidin] |  | 1,78 | 56,0% | 0% | 0% |  | 
CN(C)C(=O)N1CCCCCC1 [N-Dimethyl-carbamoyl-hexa-methylenimin] |  | 2,45 | 77,2% | 53,2% | 0% | 5,48 | 
